Values joined by “and” are separate entries in the source; they are usually repeats but may differ in a detail not shown here. Identical values can stand only once. Like-named read-outs stand apart in the source and are kept apart here.
How the values were obtained:
[1] = biological target: T1, wild-type mouse Pgp (MDR3) (Mus musculus, UniProt P21447); assay: biochemical
Procedure: (§1) Overexpression of wild-type mouse Pgp (MDR3) was achieved by using genetically engineered strains of Pichia pastoris with a 6X histidine tag. The cells were cultured in glycerol media, and methanol was used to induce the overexpression of Pgp at the Bioexpression and Fermentation Facility (BFF), University of Georgia, Athens, GA, USA. A repeated cycle of freezing using liquid nitrogen, blending, and thawing was used to lyse the Pgp-expressing P. pastoris cells. The protein was purified using affinity chromatography with nickel-nitrilotriacetic acid (Ni-NTA) resin (Thermo Fisher Scientific, Waltham, MA, USA). DDM was used to solubilize the protein, and the solution was concentrated using Amicon Ultra-15 100 kDa cut-off filters (EMD Millipore, Billerica, MA, USA). The concentration of purified protein was measured at 280 nm using a calculated extinction coefficient of 1.28 per mg mL^−1 on a Nanodrop (DeNovix, Wilmington, DE, USA). […] The purified DDM-solubilized Pgp was aliquoted and stored at −80 °C for future analysis.
(§2) Approximately 40 µL of DDM-solubilized Pgp was dialyzed for two hours against HEPES buffer (20 mM HEPES, 100 mM NaCl, 5 mM MgCl2, 2 mM DTT, pH 7.4) to remove any remnants of the detergent, DDM. The dialyzed protein was mixed with 4 mg mL^−1 of the extruded liposomes and incubated on ice for at least one hour to allow Pgp to integrate into the liposomes. To remove any additional detergent and further facilitate Pgp integration into the liposome, the solution was dialyzed for a second time for two hours in HEPES buffer to form proteoliposomes, and the concentration of Pgp reconstituted in liposomes was determined using the Bio-Rad DC Protein assay. Finally, the solution was aliquoted and stored at −80 °C for future use.
The intrinsic tryptophan residues in the protein can be selectively excited and emitted at 295 nm and 330 nm wavelengths, respectively. The binding of the drug to the protein can alter the spatial arrangement encountered by the tryptophan residue(s) and thereby regulate the fluorescence intensity of the protein [52]. […] Proteoliposomes diluted to 1 µM in Chifflet buffer containing 2 mM DTT were titrated against varying concentrations of drugs. The intrinsic protein fluorescence was measured at 330 nm upon excitation at 295 nm using an Olis DM 45 spectrophotometer (Olis Corporation, Bogart, GA, USA). To nullify the effect of Rayleigh bands on the observed spectra, a 10 nm band-pass filter was inserted on the excitation and emission paths of the spectrophotometer. The drug-induced quenching of intrinsic Pgp fluorescence was corrected (Fcorrected) for factors such as dilution, background fluorescence, and inner filter effects using the equation mentioned below (Equation (2)).(2) Fcorrected=F−B10^εexbex+εembemQ/2 where Fcorrected = Drug-induced quenching of intrinsic Pgp fluorescence; F = Emitted intrinsic Pgp fluorescence at 330 nm; [Q] = Concentration of drug; εex and εem = Excitation and emission extinction coefficients, respectively; bex and bem = Path lengths of excitation (0.4 mm) and emission (10 mm) wavelengths, respectively; and B = Background fluorescence measured from drug and solvent.
The resulting quenching curves were fit using a modified Stern-Volmer equation (Equation (3)), as follows:(3) Fcorrected=FOcorrected/1+KsvQ+Funquenched where Fcorrected = The corrected fluorescence; F0(corrected) = Fluorescence recorded in the absence of drug; [Q] = Concentration of drug; Ksv = Stern–Volmer constant; and F(unquenched) = unquenched fluorescence.

[2] = biological target: T1, wild-type mouse Pgp (MDR3)
Procedure: as §1, §2
Acrylamide, an aqueous collisional quencher, can be used to determine the changes in conformation upon Pgp-drug interaction. The principle of this technique is that as the drug interacts with the protein, the conformation of the accessible tryptophan residues in the protein also changes, resulting in a shift in fluorescence intensity. For this experiment, to measure the fluorescence of Pgp reconstituted in liposomes, in the presence (250 µM) or absence of drug(s), the excitation and emission wavelengths used were 295 nm and 330 nm, respectively. The proteoliposomes were diluted to a final concentration of 1 µM in Chifflet buffer (pH 7.4) containing 2 mM DTT, and it was titrated against an increasing concentration of acrylamide. A concentration of 11 µM N-acetyl-L-tryptophanamide (NATA), an analog of tryptophan, was used as a positive control to determine non-specific quenching. A saturated concentration of AMPPNP (3.2 mM), a non-hydrolysable form of ATP, was used to generate an outward-open conformation of Pgp. All the experiments for acrylamide quenching were performed at 21 °C. To correct the fluorescence intensities for background, dilution, and inner filter effects, […] was used. A Stern–Volmer plot was constructed with F0(corrected)/F(corrected) versus acrylamide concentration. The slope of the curve determined the degree of quenching, and it was related to the Stern–Volmer constant (Ksv) by Equation (4), as follows:(4) Focorrected/Fcorrected=1+KsvQ where F0(corrected)/F(corrected) = Stern–Volmer plot; Ksv = Stern–Volmer constant; and [Q] = acrylamide concentration.

[3] = 1 µM proteoliposome, excitation 295 nm, emission 330 nm, absence of ATP and co-factors
[4] = 250 µM drug, 3.2 mM AMPPNP, 21 °C
[5] = 250 µM drug, 3.2 mM AMPPNP, inferred from Ksv
[6] = 250 µM drug, absence of AMPPNP, 21 °C, apo-Pgp 2.5 ± 0.04
[7] = 250 µM drug, no AMPPNP, inferred from Ksv

T1 sequence (P21447 whole entry): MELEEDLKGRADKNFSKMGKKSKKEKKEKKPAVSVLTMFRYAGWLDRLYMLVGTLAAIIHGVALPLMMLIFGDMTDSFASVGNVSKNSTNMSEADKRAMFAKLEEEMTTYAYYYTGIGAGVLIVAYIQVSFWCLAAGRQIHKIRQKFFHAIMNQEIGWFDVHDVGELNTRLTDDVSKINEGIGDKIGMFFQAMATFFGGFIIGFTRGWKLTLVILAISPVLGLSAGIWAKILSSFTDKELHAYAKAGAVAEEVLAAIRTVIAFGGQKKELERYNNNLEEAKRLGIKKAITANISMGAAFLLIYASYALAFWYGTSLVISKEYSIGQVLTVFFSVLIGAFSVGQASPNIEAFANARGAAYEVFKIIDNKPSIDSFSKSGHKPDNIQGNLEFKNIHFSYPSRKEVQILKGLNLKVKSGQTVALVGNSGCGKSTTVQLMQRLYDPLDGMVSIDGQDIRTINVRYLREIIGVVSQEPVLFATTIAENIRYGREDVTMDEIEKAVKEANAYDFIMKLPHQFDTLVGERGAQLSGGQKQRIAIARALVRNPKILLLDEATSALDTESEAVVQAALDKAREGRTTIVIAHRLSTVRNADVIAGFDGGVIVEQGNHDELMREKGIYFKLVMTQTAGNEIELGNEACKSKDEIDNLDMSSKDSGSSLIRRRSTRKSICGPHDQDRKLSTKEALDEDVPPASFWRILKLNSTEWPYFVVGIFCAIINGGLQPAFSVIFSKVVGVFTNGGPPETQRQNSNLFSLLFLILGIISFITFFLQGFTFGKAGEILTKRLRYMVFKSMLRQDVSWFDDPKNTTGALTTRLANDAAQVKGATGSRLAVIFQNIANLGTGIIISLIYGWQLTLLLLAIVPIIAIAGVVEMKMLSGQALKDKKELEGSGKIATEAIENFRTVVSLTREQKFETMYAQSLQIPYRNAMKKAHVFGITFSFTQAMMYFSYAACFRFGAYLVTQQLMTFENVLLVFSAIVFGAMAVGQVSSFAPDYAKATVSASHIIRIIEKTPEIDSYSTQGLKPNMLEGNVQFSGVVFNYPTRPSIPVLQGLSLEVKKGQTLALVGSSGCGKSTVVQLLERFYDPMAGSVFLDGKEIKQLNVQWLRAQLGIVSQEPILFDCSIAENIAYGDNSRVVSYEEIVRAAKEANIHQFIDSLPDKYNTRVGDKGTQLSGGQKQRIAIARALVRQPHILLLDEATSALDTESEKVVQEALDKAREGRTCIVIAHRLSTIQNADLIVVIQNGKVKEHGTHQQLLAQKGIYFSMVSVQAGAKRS

SMILES	Kd [1] [µM]	Stern-Volmer constant (Ksv) from CG-induced tryptophan fluorescence quenching in Pgp [1, 3] [µM⁻¹]	Drug-induced Ksv of Pgp (acrylamide quenching), AMPPNP (+) [2, 4] [M⁻¹]	Drug-induced Ksv of Pgp (acrylamide quenching), AMPPNP (+) ([2]; 250 µM drug, 3.2 mM AMPPNP, 21 °C, listed as digitoxigenin)	Pgp conformation with drug in the presence of a nucleotide [2, 5]	Drug-induced Ksv of Pgp (acrylamide quenching), AMPPNP (-) [2, 6] [M⁻¹]	Pgp conformation upon drug binding in the absence of a nucleotide [2, 7]	Stern-Volmer constant (Ksv) from CG-induced tryptophan fluorescence quenching in Pgp [1]	Drug-induced Ksv of Pgp (acrylamide quenching), AMPPNP (+) [2]	Drug-induced Ksv of Pgp (acrylamide quenching), AMPPNP (-) [2]	Pgp conformation upon drug binding in the absence of a nucleotide [2]	Pgp conformation with drug in the presence of a nucleotide [2]
C[C@]12CC[C@H](O)C[C@H]1CC[C@@H]1[C@@H]2CC[C@]2(C)[C@@H](C3=CC(=O)OC3)CC[C@]12O [Digitoxigenin, (3β,5β)-3,14-Dihydroxy-card-20(22)-enolide]	56.7 ± 15.6	0.01765 ± 0.0048	1.51 ± 0.02	1.51 ± 0.02 M⁻¹ and 1.51 ± 0.01 M⁻¹	outward open	1.91 ± 0.04	intermediate	–	–	–	–	–
C[C@]12CC[C@H](O)C[C@H]1CC[C@@H]1[C@@H]2C[C@@H](O)[C@]2(C)[C@@H](C3=CC(=O)OC3)CC[C@]12O [Digoxigenin, 3β,12β,14-Trihydroxy-5β,20(22)-cardenolide]	–	0.09839 ± 0.0146	1.70 ± 0.01	–	outward open	2.26 ± 0.04	intermediate	–	–	–	–	–
C[C@H]1O[C@@H](O[C@H]2[C@@H](O)C[C@H](O[C@H]3[C@@H](O)C[C@H](O[C@H]4CC[C@@]5(C)[C@H](CC[C@@H]6[C@@H]5C[C@@H](O)[C@]5(C)[C@@H](C7=CC(=O)OC7)CC[C@]65O)C4)O[C@@H]3C)O[C@@H]2C)C[C@H](O)[C@@H]1O [Digoxin]	6.85 ± 0.83	–	–	–	–	–	–	0.146 ± 0.0117 and 0.146 ± 0.0117 µM^−1	1.51 ± 0.02 and 1.51 ± 0.02 M^−1	2.55 ± 0.06 and 2.55 ± 0.06 M^−1	no effect	outward open

— paper PMC12386283, “Elucidating the Complex Structural and Molecular Mechanisms Driving P-Glycoprotein-Mediated Transport of Cardiac Glycosides” (International Journal of Molecular Sciences, 2025)
